In series [1] the target is T1, P-glycoprotein (Oryctolagus cuniculus, UniProt Q6UUW3).
T1 construct: from tissue; host or cells: rabbit intestinal mucosa (tissue perfusion / diffusion cells)
Description: Apical to basolateral transport of 14C-paclitaxel across rabbit intestinal mucosa with and without glycol ethers or verapamil. Format: in vitro ADME. The procedure: Briefly, fresh mucosal samples are collected from female, white New Zealand rabbits, are separated from underlying connective tissue, and are mounted into modified Franz-type diffusion cells (5 mm diameter). […] Radioactivity is determined by liquid scintillation counting using a Beckman LS 6500. Each transport experiment is performed in four replicate tissue samples. […] Individual and mean Papp values with corresponding standard deviations (S.D.) are calculated for each group. Statistical significance is tested by one-way analysis of variance (ANOVA) using Tukey's family error at p<0.05. […]

The subject of series [2] is membrane efflux systems. Description: Bidirectional transport of ritonavir across rabbit mucosa in diffusion cells (membrane efflux activity). In kind it is in vitro ADME. An excerpt: To illustrate experimentally the functional differences in membrane efflux activity among the intestinal, vaginal, and buccal mucosal barriers, bidirectional transport of the protease inhibitor ritonavir is quantitatively assessed and results seen in FIG. 1 may be obtained (FIG. 1). Experimental procedures are described in Example 2.
Briefly, fresh mucosal samples are collected from female, white New Zealand rabbits, are separated from underlying connective tissue, and are mounted into modified Franz-type diffusion cells (5 mm diameter). Permeability studies from the apical to the basolateral as well as in the opposite direction are performed using continuous-flow perfusion chambers designed for mucosal tissue (Squier et al. J. Pharm. Sci., 86, 82-84 (1997)). ^3H-Ritonavir (˜3 μCi/mL) dissolved in 1 mL of 0.01 M PBS, pH 7.4, is applied to the donor compartment, and the perfusate in the received compartment is collected into scintillation vials through 16 hrs. Radioactivity is determined by liquid scintillation counting using a Beckman LS 6500. Each transport experiment is performed in four replicate tissue samples. Apparent permeability coefficients (Papp) are calculated from steady state flux according to Papp [cm/min]=(ΔQ/Δt)/Axc(0), where ΔQ/Δt=linear appearance rate of mass in the receiver, A=cross-sectional area (i.e., 0.20 cm^2), and c(0)=initial ritonavir concentration in the donor compartment at t=0. Individual and mean Papp values with corresponding standard deviations (S.D.) are calculated for each group. Statistical significance is tested by one-way analysis of variance (ANOVA) using Tukey's family error at p<0.05. To evaluate the contribution of membrane efflux system on ritonavir permeability Refflux was calculated as the ratio of Papp(basolateral-apical)/Papp(apical-basolateral).

For series [3], the system named is cytochrome P450. The series is described as follows: Cytochrome P450-mediated oxidation of coumarin to 7α-hydroxycoumarin by rabbit liver microsomes. Format: biochemical. The note with it: 1% glycol ether. The procedure: To evaluate the effect of glycol ethers on cytochrome P450-mediated metabolism, enzymatic conversion of coumarin to its 7α-hydroxycoumarin oxidation product by rabbit liver microsomes in the presence and absence of 5% DGMEE, 1% DBMPE, and 1% DGMBE is determined according to a protocol described previously by Pearce and co-workers (Arch. Biochem. Biophys., 298, 211-225 (1992)).
A general note: Microsomes from liver hold many membrane-bound enzymes, among them those of drug oxidation.

T1 sequence (Q6UUW3 1-1279): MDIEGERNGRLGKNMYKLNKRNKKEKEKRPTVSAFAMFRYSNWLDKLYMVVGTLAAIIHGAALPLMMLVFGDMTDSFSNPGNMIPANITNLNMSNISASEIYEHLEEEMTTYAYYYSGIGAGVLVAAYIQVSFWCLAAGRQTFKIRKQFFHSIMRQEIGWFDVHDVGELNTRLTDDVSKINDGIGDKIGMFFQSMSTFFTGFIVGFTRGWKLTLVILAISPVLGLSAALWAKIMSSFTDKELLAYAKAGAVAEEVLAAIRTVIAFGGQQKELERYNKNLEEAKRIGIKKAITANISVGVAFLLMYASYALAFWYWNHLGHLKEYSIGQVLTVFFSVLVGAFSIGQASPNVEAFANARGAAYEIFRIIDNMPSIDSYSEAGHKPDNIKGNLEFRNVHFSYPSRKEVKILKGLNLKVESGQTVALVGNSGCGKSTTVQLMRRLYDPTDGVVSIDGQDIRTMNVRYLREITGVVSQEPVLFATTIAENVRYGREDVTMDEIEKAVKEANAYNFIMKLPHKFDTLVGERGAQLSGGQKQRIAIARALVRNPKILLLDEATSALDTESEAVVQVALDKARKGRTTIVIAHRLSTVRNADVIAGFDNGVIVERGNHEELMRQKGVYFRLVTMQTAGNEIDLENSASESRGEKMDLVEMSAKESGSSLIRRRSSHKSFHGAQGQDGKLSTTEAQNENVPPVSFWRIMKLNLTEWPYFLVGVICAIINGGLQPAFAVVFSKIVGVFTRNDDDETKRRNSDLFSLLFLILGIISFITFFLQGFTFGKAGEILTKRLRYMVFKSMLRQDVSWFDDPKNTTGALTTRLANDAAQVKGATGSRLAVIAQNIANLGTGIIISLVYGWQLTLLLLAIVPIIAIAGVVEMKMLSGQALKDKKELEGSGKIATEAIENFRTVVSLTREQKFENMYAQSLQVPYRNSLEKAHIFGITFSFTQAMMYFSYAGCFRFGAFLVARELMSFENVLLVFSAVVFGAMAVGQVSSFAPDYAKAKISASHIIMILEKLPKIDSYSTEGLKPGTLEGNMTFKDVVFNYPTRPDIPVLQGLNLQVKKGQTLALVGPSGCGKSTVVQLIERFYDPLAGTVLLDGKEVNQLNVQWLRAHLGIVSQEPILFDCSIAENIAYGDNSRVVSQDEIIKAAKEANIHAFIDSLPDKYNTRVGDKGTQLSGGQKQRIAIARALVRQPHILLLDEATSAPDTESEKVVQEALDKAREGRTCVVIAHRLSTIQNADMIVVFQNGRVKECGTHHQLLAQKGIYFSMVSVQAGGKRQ

With `CCCOCCOCCO` [DGMPE, diethylene glycol monopropyl ether], the “enhancement of intestinal absorption of paclitaxel” value (shortened to “enhancement”) in series [1] (1% in transport buffer) came out at 2.5 fold. With `CCOCCOCCO` [DGMEE, diethylene glycol mono 2-ethyl ether], the “enhancement” value in series [1] (5% in transport buffer) is listed as 1.8 fold.

For the molecule `CC(C)c1nc(CN(C)C(=O)N[C@H](C(=O)N[C@@H](Cc2ccccc2)C[C@H](O)[C@H](Cc2ccccc2)NC(=O)OCc2cncs2)C(C)C)cs1` [ritonavir], the “Refflux compared with intestinal barrier” value in series [2] (buccal rabbit epithelium in vitro) and in series [2] (vaginal rabbit epithelium in vitro) was “significantly smaller” each time. Besides, in series [2] (intestinal rabbit mucosa in vitro, 3H-ritonavir), the “basolateral to apical flux relative to the opposite direction (Refflux)” value is on record as 9.2 fold. On to `CCCCOCCOCCO` [DGMBE, diethylene glycol monobutyl ether], for which the “reduction of formation of the 7α-hydroxycoumarin metabolite” value in series [3] is reported as “about 42%”. Also, the “enhancement” value in series [1] (1% in transport buffer) was found to be 4.1 fold.

For the origin of these results see patent US8178123B2, “Method for augmentation of intraepithelial and systemic exposure of therapeutic agents having substrate activity for cytochrome P450 enzymes and membrane efflux systems following vaginal and oral cavity administration” (Femina Pharma Incorporated, priority 2001, dated 2012).
